Reference: patent publication US20100286073A1, “COMPOUNDS AND METHODS FOR PHARMACEUTICAL USE” (priority 2007, published 2010)
Entries after “also recorded” stand apart in the source; their conditions may differ.

Legend:
[1] = system: human subjects diagnosed with fibromyalgia syndrome; test: Treatment of human subjects diagnosed with fibromyalgia with trimetazidine (Examples 1-4, clinical case reports); type: in vivo
Procedure: A person presented with long-standing complaints (15 years) of widespread pain—headaches, upper and lower back pain, neck pain, elbow and knee pain bilaterally, calf pain bilaterally and jaw pain. General non-specific symptoms were fatigue, symptoms of irritable bowel syndrome (constipation-type), insomnia, cognitive and memory impairment, morning stiffness, dizziness, irritability and depression.
Treatment Regime: The subject was administered trimetazidine (modified release formulation, Vastarel® MR), 35 mg orally, twice daily, originally for treatment of their cardiac condition.
Treatment Regime: The subject was administered trimetazidine (modified release formulation, Vastarel® MR), 35 mg orally, twice daily.
The following is a synopsis of the clinical response of each of eight (8) patients diagnosed with FMS, each of whom received treatment with trimetazidine MR (Vastarel® MR), 35 mg orally, twice daily, for a period of at least four (4) weeks.

[2] = target: long-chain isoform of 3-ketoacyl coenzyme A thiolase (3KCT) (Homo sapiens, UniProt P55084); conditions: thereby reducing fatty acid oxidation; Kantor et al., Circ Res 2000; cited from earlier work
Chain of long-chain isoform of 3-ketoacyl coenzyme A thiolase (3KCT) (P55084 34-474): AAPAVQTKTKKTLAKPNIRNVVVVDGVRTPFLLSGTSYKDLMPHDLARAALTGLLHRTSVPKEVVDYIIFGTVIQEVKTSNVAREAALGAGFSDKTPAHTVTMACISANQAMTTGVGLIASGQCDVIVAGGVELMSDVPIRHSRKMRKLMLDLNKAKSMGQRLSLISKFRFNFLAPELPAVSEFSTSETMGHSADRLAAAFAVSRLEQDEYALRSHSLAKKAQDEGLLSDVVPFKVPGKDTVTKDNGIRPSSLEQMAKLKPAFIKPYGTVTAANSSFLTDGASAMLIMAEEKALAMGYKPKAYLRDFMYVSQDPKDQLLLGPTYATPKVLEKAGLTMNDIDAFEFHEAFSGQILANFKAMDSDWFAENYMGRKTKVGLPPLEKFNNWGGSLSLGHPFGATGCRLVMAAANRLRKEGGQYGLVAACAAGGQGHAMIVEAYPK
Chain of long-chain isoform of 3-ketoacyl coenzyme A thiolase (3KCT) (P40939 37-763 partner): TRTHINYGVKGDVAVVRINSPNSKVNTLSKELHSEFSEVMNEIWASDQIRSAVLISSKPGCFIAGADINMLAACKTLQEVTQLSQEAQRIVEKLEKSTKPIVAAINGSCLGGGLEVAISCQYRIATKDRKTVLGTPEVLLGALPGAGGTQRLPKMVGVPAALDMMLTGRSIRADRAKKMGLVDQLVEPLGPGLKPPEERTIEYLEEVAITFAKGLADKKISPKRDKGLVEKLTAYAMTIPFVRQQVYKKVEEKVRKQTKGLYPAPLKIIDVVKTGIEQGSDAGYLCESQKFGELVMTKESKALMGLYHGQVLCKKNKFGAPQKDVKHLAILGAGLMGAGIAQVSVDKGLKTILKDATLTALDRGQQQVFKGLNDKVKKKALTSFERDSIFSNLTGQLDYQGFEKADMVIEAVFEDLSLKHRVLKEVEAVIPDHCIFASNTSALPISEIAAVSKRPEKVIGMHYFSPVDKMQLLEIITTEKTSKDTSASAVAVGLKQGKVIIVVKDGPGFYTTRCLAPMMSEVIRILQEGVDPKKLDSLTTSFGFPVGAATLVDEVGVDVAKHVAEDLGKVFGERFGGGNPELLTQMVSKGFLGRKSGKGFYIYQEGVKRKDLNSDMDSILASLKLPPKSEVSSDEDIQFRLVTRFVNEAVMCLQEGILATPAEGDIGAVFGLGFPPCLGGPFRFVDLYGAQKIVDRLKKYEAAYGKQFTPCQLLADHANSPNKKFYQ

[3] = system: human subjects diagnosed with fibromyalgia syndrome; test: Patient history of prior treatment of the fibromyalgia subjects (Examples 1-3); conditions: for pain relief by prior OTC analgesics: codeine at low dose; for side effects of prior prescription analgesics / pain relief by prior prescription analgesics: codeine at high dose; for pain relief by prior prescription analgesics: at best
Text: (§1) Patient History of Prior Treatment: A patient history was taken. Prior treatments targeting pain relief were as follows.
Prior treatments targeting other symptoms included the following. The subject had taken tegaserod for irritable bowel syndrome. Additional prior therapies included sertraline for depression, and zolpidem for insomnia. The subject has also taken proclorperazine for dizziness.
Prior treatments targeting other symptoms included the following. The subject had taken tegaserod for irritable bowel syndrome. Additional prior therapies included sertraline for depression, and zolpidem for insomnia.
as §1
Prior treatments targeting other symptoms included the following. The subject had taken tegaserod for irritable bowel syndrome. Additional prior therapies included zolpidem, midazolam, zopiclone, and chlorpheniramine for insomnia.

[4] = Examples 1-2, within 72 h (Ex. 1) or 24 h (Ex. 2) of starting 35 mg orally twice daily, patient-reported
[5] = Examples 1-3, within 72 h (Ex. 1) or 24 h (Ex. 2, 3) of starting 35 mg orally twice daily, patient-reported
[6] = Short Term i.e. within 72 hours, trimetazidine MR 35 mg orally twice daily, FMS patient, Example 4
[7] = Short Term i.e. within 72 hours, trimetazidine MR 35 mg orally twice daily, FMS patients, Example 4
[8] = after four (4) months of continuous use, 35 mg orally twice daily
[9] = examination after at least four weeks of trimetazidine MR 35 mg orally twice daily
[10] = examination after four weeks of trimetazidine MR 35 mg orally twice daily

Structure (SMILES): COc1ccc(CN2CCNCC2)c(OC)c1OC [trimetazidine, 1-(2,3,4-trimethyloxybenzyl)piperazine]
- time after commencing therapy at which benefits were first noticed ([1]; Example 1, 35 mg orally twice daily): ≤ 24 h
- level of irritability ([1]; Example 1, within 72 hours of starting 35 mg orally twice daily, patient-reported): markedly reduced
- clarity of thoughts [1, 4]: markedly increased
- short and long term memory [1, 4]: improvement
- energy levels [1, 5]: very significantly increased
- mood [1, 5]: very improved
- regularity of bowel habits [1, 5]: markedly improved
- sleep patterns [1, 5]: very significantly improved
- residual pain after reduction of widespread pain ([1]; Examples 1-3, within 72 h (Ex. 1) or 24 h (Ex. 2, 3) of starting treatment): minimal residual pain reported at the left medial knee; also recorded: minimal residual pain reported at the left hip; also recorded: residual mild headache
- sense of well-being ([1]; Medium/Long Term, after five (5) or four (4) weeks of daily use): increased sense of
- sustained improvement of all symptoms ([1]; Medium/Long Term, after five (5) weeks of daily use, 35 mg orally twice daily, patient-reported): dramatic 95%
- energy levels ([1]; Medium/Long Term, after four (4) weeks of daily use): sustained increase
- sustained improvement of symptoms ([1]; Medium/Long Term, after nine (9) weeks of daily use, 35 mg orally twice daily, patient-reported): 90% sustained
- sustained improvement of symptoms ([1]; Medium/Long Term, after seven (7) weeks of daily use, 35 mg orally twice daily, patient-reported): dramatic 95%
- sustained improvement of symptoms ([1]; Medium/Long Term, after six (6) weeks of daily use, 35 mg orally twice daily, patient-reported): (95%) sustained
- Chest Pain [1, 6]: Absence of Chest
- Memory [1, 6]: Improved Memory
- Nausea [1, 6]: Absence of Nausea
- Nausea and Vomiting [1, 6]: Absence of Nausea
- nervousness [1, 6]: No Nervousness
- reduction in IBS and Acid Reflux Symptoms [1, 6]: 90% reduction in
- reduction in irritability [1, 6]: 90% reduction in
- reduction in severity of Pre-Menstrual Cramps [1, 6]: 70% reduction in
- reduction in symptoms of Irritable Bowel Syndrome [1, 6]: 90% reduction in
- symptoms of Irritable Bowel Syndrome [1, 6]: Markedly reduced
- alertness and clarity of thinking [1, 7]: Increased alertness
- dizziness/dizzy spells [1, 7]: Infrequent dizzy; also recorded: Absence of
- energy (feeling) [1, 7]: Energetic feeling
- improved mood and concentration [1, 7]: Significantly
- improved mood and memory [1, 7]: Significantly
- reduction in widespread pain and trigger point pain [1, 7]: 90% reduction in
- sleep [1, 7]: Consistent restful
- quality of life at follow-up [1, 8]: same marked improvement
- relapse of symptoms at follow-up [1, 8]: no relapse
- quality of life at follow-up ([1]; after six (6) months of continuous use, 35 mg orally twice daily): same marked improvement
- pain at trigger points at follow-up ([1]; after six (6) months of continuous use, in reaction to stress or infections): infrequent episodes of pain
- EXAMINATION FINDINGS: affect [1, 9]: markedly improved
- EXAMINATION FINDINGS: resolution of trigger point tenderness [1, 9]: Sustained
- EXAMINATION FINDINGS: affect and energy levels [1, 10]: markedly improved
- EXAMINATION FINDINGS: improvement in physical appearance [1, 10]: obvious marked
- EXAMINATION FINDINGS: improved energy levels ([1]; examination after ten weeks of trimetazidine MR 35 mg orally twice daily): Markedly
- improvement in all symptoms and signs of fibromyalgia ([1]; within 24 hours of starting treatment, 35 mg orally twice daily): vast improvement
- reduction in widespread pain ([1]; within 24 hours of starting treatment, trimetazidine MR 35 mg orally twice daily, FMS patient, patient-reported): 95%
- improvement in all symptoms and signs of fibromyalgia ([1]; within 72 hours of starting treatment, 35 mg orally twice daily): vast improvement
- reduction in widespread pain ([1]; within 72 hours of starting treatment, trimetazidine MR (Vastarel MR) 35 mg orally twice daily, FMS patient, patient-reported): 90%
- reduction in widespread pain ([1]; within 72 hours of starting treatment, trimetazidine MR (Vastarel MR) 35 mg orally twice daily, FMS patient, patient-reported, listed as Trimetazidine): 90% reduction in
- effect on long-chain 3-ketoacyl coenzyme A thiolase (3KCT) [2]: inhibits

Structure (SMILES): COc1ccc2c3c1O[C@H]1[C@@H](O)C=C[C@H]4[C@@H](C2)N(C)CC[C@@]341 [codeine]
- pain relief by prior OTC analgesics [3]: no pain relief whatsoever; also recorded: negligible pain relief
- side effects of prior prescription analgesics [3]: frequently accompanied by unpleasant side effects
- pain relief by prior prescription analgesics [3]: mild to moderate and very temporary relief

Structure (SMILES): CCOC(=O)C1(c2ccccc2)CCN(C)CC1 [meperidine]
- side effects of prior prescription analgesics [3]: frequently accompanied by unpleasant side effects
- pain relief by prior prescription analgesics [3]: mild to moderate and very temporary relief

Structure (SMILES): CC(=O)Nc1ccc(O)cc1 [paracetamol]
- pain relief by prior OTC analgesics [3]: no pain relief whatsoever; also recorded: negligible pain relief

Structure (SMILES): COc1cccc(C2(O)CCCCC2CN(C)C)c1 (centres unmarked) [tramadol]
- side effects of prior prescription analgesics [3]: frequently accompanied by unpleasant side effects
- pain relief by prior prescription analgesics [3]: mild to moderate and very temporary relief

Structure (SMILES): CCN(CC)CC(=O)Nc1c(C)cccc1C [lidocaine]
- localized pain relief by prior trigger point injections ([3]; injections repeated at 2 to 4 week intervals, extremely painful procedures): best localized pain relief
